According to patent publication US20050208146A1, “Novel dosage and administration method for oral camptosar” (Pfizer Inc, priority 2003, published 2005):
Where “and” joins values, the source holds several entries; their conditions need not be identical. Identical values can stand only once. Entries after “also recorded” stand apart in the source; their conditions may differ.

Columns and labels:
[1] = Pharmacokinetics and absolute bioavailability at MTD, IV/oral cross-over in patients; settings: for AUC(0-inf): 60 mg/m2, AUC0-inf; for Cmax: 60 mg/m2, Cmax
Experimental: (§1) The protocol had two stages, Stage A directed to dose escalation and Stage B directed to pharmacokinetics and bioavailability measurement. Patients were treated as in Table 3. […] MTD is defined as the dose level below which 2/3 or preferably 2/6 patients experience DLT.
(§2) In addition, evidence of antitumor activity can be evaluated.

[2] = Comparison of exposure over 6-week period, oral vs IV irinotecan
[3] = Dose escalation to MTD, DLT and grade 3/4 toxicities of oral irinotecan semi-solid matrix capsules in patients with solid tumors; type: in vivo, human; settings: for DLT (kind and grade) / Pts with DLT: first cycle
Experimental: Patients were treated as in Table 3. […]
Oral irinotecan can be formulated as follows.
The patients received starting doses of 50 (n=7), 60 (n=32), or 70 (n=4) mg/m^2/d. […] See also Tables 6 and 7.

solid tumors = assay: Best overall tumor response in patients treated with oral irinotecan; type: in vivo, human; settings: oral irinotecan daily x5 q 3 weeks
Experimental: as §1, §2

clinical = settings: human
[4] = plasma, irinotecan 60 mg/m^2 IV, N=14
[5] = plasma, irinotecan 60 mg/m^2 PO, N=14
[6] = IV Irinotecan, weekly x 4 q 6 weeks x 1 cycle, N=99
[7] = All Cycles, 60 mg/m^2/day, N=32

SMILES: CCc1c2c(nc3ccc(O)cc13)-c1cc3c(c(=O)n1C2)COC(=O)[C@]3(O)CC [SN-38, 7-ethyl-10-hydroxycamptothecin]
- AUC0-inf, mean ± SD ([1]; irinotecan 60 mg/m^2 IV, N=14): 167 ± 77.8 ng·h/mL
- AUC0-inf, median ([1]; irinotecan 60 mg/m^2 IV, N=14): 169 ng·h/mL
- AUC0-inf, range ([1]; irinotecan 60 mg/m^2 IV, N=14): 55.1 to 358 ng·h/mL
- t1/2, mean ± SD ([1]; irinotecan 60 mg/m^2 IV, N=14): 22.95 ± 19.41 h
- t1/2, median ([1]; irinotecan 60 mg/m^2 IV, N=14): 19.31 h
- t1/2, range ([1]; irinotecan 60 mg/m^2 IV, N=14): 8.63 to 94.9 h
- tmax, median ([1]; irinotecan 60 mg/m^2 IV, N=14): 0.5 h
- tmax, range ([1]; irinotecan 60 mg/m^2 IV, N=14): 0 to 2.0 h
- tmax, mean ± SD ([1]; irinotecan 60 mg/m^2 IV, N=14, measured from start of 1.5-h infusion): 2.18 ± 1.99^2 h
- PO/IV SN-38 AUC Ratio, Mean ± SD ([1]; irinotecan 60 mg/m^2 PO vs IV): 0.504±0.195
- PO/IV SN-38 AUC Ratio, Median ([1]; irinotecan 60 mg/m^2 PO vs IV): 0.447
- PO/IV SN-38 AUC Ratio, range ([1]; irinotecan 60 mg/m^2 PO vs IV): 0.257-0.945
- AUC0-inf, mean ± SD ([1]; irinotecan 60 mg/m^2 PO, N=14): 84.1 ± 54.7 ng·h/mL
- AUC0-inf, median ([1]; irinotecan 60 mg/m^2 PO, N=14): 70.7 ng·h/mL
- AUC0-inf, range ([1]; irinotecan 60 mg/m^2 PO, N=14): 22.8 to 223.6 ng·h/mL
- t1/2, mean ± SD ([1]; irinotecan 60 mg/m^2 PO, N=14): 14.2 ± 5.87 h
- t1/2, median ([1]; irinotecan 60 mg/m^2 PO, N=14): 13.4 h
- t1/2, range ([1]; irinotecan 60 mg/m^2 PO, N=14): 4.7 to 25.7 h
- tmax, mean ± SD ([1]; irinotecan 60 mg/m^2 PO, N=14): 2.97 ± 2.21 h
- tmax, median ([1]; irinotecan 60 mg/m^2 PO, N=14): 2 h
- tmax, range ([1]; irinotecan 60 mg/m^2 PO, N=14): 1.0 to 10.0 h
- AUC of SN-38 following oral irinotecan as % of the value from an equivalent IV dose (mean±SD) ([1]; oral vs equivalent IV dose of irinotecan): 50±20%
- Cmax, mean ± SD [1, 4]: 15.94 ± 7.83 ng/mL
- Cmax, median [1, 4]: 13.8 ng/mL
- Cmax, range [1, 4]: 7.26 to 36.9 ng/mL
- Cmax, mean ± SD [1, 5]: 7.17 ± 3.90 ng/mL
- Cmax, median [1, 5]: 3.91 ng/mL
- Cmax, range [1, 5]: 1.31 to 14.8 ng/mL
- AUC0-inf, exposure over 6-week period [2, 6]: 1,068 ng h/ml
- Cmax [2, 6]: 28 ng/mL
- Cmax ([2]; Oral Irinotecan, daily x 5 q 3 weeks x 2 cycles, N=14): 7.2 ng/mL

SMILES: CCc1c2c(nc3ccc(OC(=O)N4CCC(N5CCCCC5)CC4)cc13)-c1cc3c(c(=O)n1C2)COC(=O)[C@]3(O)CC [irinotecan, 7-ethyl-10-[4-(1-piperidino)-1-piperidino]-carbonyloxycamptothecin]
- Grade 3 and 4 Diarrhea ([3]; All Cycles, 50 mg/m^2/day, N=7): 14%
- Grade 3 and 4 Nausea ([3]; All Cycles, 50 mg/m^2/day, N=7): 14%
- Grade 3 and 4 Diarrhea [3, 7]: 16%
- Grade 3 and 4 Nausea [3, 7]: 9%
- Grade 3 and 4 Neutropenia [3, 7]: 9%
- Grade 3 and 4 Neutropenic Fever [3, 7]: 3%
- Grade 3 and 4 Vomiting [3, 7]: 12%
- Grade 3 and 4 Diarrhea ([3]; All Cycles, 70 mg/m^2/day, N=4): 50%
- Grade 3 and 4 Nausea ([3]; All Cycles, 70 mg/m^2/day, N=4): 3%
- Grade 3 and 4 Neutropenia ([3]; All Cycles, 70 mg/m^2/day, N=4): 25%
- Grade 3 and 4 Neutropenic Fever ([3]; All Cycles, 70 mg/m^2/day, N=4): 25%
- Grade 3 and 4 Vomiting ([3]; All Cycles, 70 mg/m^2/day, N=4): 3%
- Grade 3 and 4 Diarrhea ([3]; Cycle 1, 50 mg/m^2/day, N=7): 14%
- Grade 3 and 4 Nausea ([3]; Cycle 1, 50 mg/m^2/day, N=7): 14%
- Grade 3 and 4 Diarrhea ([3]; Cycle 1, 60 mg/m^2/day, N=32): 13%
- Grade 3 and 4 Nausea ([3]; Cycle 1, 60 mg/m^2/day, N=32): 6%
- Grade 3 and 4 Neutropenia ([3]; Cycle 1, 60 mg/m^2/day, N=32): 3%
- Grade 3 and 4 Vomiting ([3]; Cycle 1, 60 mg/m^2/day, N=32): 9%
- Grade 3 and 4 Diarrhea ([3]; Cycle 1, 70 mg/m^2/day, N=4): 50%
- Grade 3 and 4 Neutropenia ([3]; Cycle 1, 70 mg/m^2/day, N=4): 25%
- Grade 3 and 4 Neutropenic Fever ([3]; Cycle 1, 70 mg/m^2/day, N=4): 25%
- recommended phase 11 dose ([3]; SSM oral irinotecan, for 5 days every 3 wks): 60 mg/m^2/daily
- DLT (kind and grade) ([3]; Stage A, 50 mg/m^2/day oral): G3 diarrhea, G3 nausea, G3 dehydration; also recorded: Gr. 3 Nausea; also recorded: Gr. 3 Diarrhea; also recorded: Gr. 3 Dehydration
- Pts with DLT ([3]; Stage A, 50 mg/m^2/day oral, 7 evaluable): 1/7 and 1
- DLT (kind and grade) ([3]; Stage A, 60 mg/m^2/day oral): None
- Pts with DLT ([3]; Stage A, 60 mg/m^2/day oral, 8 evaluable): 0/8 and 0
- DLT (kind and grade) ([3]; Stage A, 70 mg/m^2/day oral): G3 diarrhea, G4 ANC [absolute neutrophil counts]; G4 diarrhea, fever, dehydration, fatigue; also recorded: Pt 1: gr. 3 Diarrhea,; also recorded: Pt 2: gr. 4 Diarrhea,; also recorded: gr. 4 Dehydration
- Pts with DLT ([3]; Stage A, 70 mg/m^2/day oral, 4 evaluable): 2/4 and 2
- DLT (kind and grade) ([3]; Stage B, 60 mg/m^2/day oral): Pt 1: Gr. 3 Diarrhea; also recorded: Pt 2: Gr. 3 Dehydration; also recorded: Pt 7: Gr. 3 Diarrhea
- Pts with DLT ([3]; Stage B, 60 mg/m^2/day oral, 24 evaluable): 7
- MTD ([3]; oral, encapsulated semi-solid matrix, daily x5 q 3 weeks): 60 mg/m^2/day
- bioavailability ([1]; human, in vivo, Absolute bioavailabiity of irinotecan, Mean ± SD): 24 ± 23%
- bioavailability ([1]; human, in vivo, Absolute bioavailabiity of irinotecan, Median): 15.4%
- bioavailability ([1]; human, in vivo, Absolute bioavailabiity of irinotecan, range): 7.1 to 96%
- Tmax ([1]; human, in vivo, iv, 60 mg/m2): End of 1.5-h
- AUC(0-inf) ([1]; human, in vivo, iv, mean ± SD): 3020 ± 830 ng·h/mL
- AUC(0-inf) ([1]; human, in vivo, iv, median): 2610 ng·h/mL
- AUC(0-inf) ([1]; human, in vivo, iv, range): 1720 to 4790 ng·h/mL
- Cmax ([1]; human, in vivo, iv, mean ± SD): 627 ± 142 ng/mL
- Cmax ([1]; human, in vivo, iv, median): 593 ng/mL
- Cmax ([1]; human, in vivo, iv, range): 416 to 897 ng/mL
- tmax, mean ± SD ([1]; human, in vivo, po, 60 mg/m2): 3.15 ± 2.00 h
- AUC(0-inf) ([1]; human, in vivo, po, mean ± SD): 732 ± 665 ng·h/mL
- AUC(0-inf) ([1]; human, in vivo, po, median): 619 ng·h/mL
- AUC(0-inf) ([1]; human, in vivo, po, range): 167 to 2500 ng·h/mL
- Cmax ([1]; human, in vivo, po, mean ± SD): 73.1 ± 67.6 ng/mL
- Cmax ([1]; human, in vivo, po, median, plasma, irinotecan 60 mg/m^2 PO, N=14): 60.1 ng/mL
- Cmax ([1]; human, in vivo, po, range, plasma, irinotecan 60 mg/m^2 PO, N=14): 9.49 to 274 ng/mL
- Tmax ([1]; human, in vivo, po, 60 mg/m2, tmax, mean ± SD): 3 ± 2.2 h
- Tmax ([1]; human, in vivo, po, 60 mg/m2, tmax, range): 1 to 10 h
- bioavailability ([1]; human, in vivo, po, absolute bioavailability (mean±SD)): 25 ± 23%
- best overall tumor response: partial responses (solid tumors; esophageal and small cell lung cancer): Two confirmed partial responses
- best overall tumor response: stable disease cases (solid tumors; variety of tumor types): thirteen stable disease cases
- AUC(0-inf) (clinical; in vivo, iv): 42000 ng·h/mL
- Cmax (clinical; in vivo, iv): 1500 ng/mL
- AUC(0-inf) (clinical; plasma, po, 60 mg/m^2/daily): 7320 ng·h/mL
- Cmax (clinical; plasma, po, 60 mg/m^2/daily): 73.1 ng/mL
